Data published in patent US20260191829A1, “Compositions and Methods of Treating Neurological Conditions” (DRI Biosciences Corporation, priority 2022, published 2026).
Entries after “also recorded” stand apart in the source; their conditions may differ.

Key:
Fmr1 KO mice [1] = assay: Novel object recognition test (learning and memory) in Fmr1 KO mice; assay type: in vivo, mouse; conditions: Fmr1 KO mice vs vehicle and FVB mice, daily oral treatment from P21, ACT01 25 mg/kg, FIG. 4D
Text: (§1) The study compared learning and memory behaviors of the different drug treated and untreated (vehicle) Fmr1 KO mice with FVB mice (a background strain of the transgenic Fmr1 KO mice; “FVB” refers to the susceptibility of FVB mice to Friend leukemia virus B). Male mice (FVB.129P2-Pde6b<+> Tyr<c-ch>Fmr1<tm1Cgr>/J (Stock No: 004624 |FMR1 KO)) were used as the FXS/autism model and age-matched male mice (FVB.129P2-Pde6b<+> Tyr<c-ch>/AntJ) were used as the controls (Bernardet, M. and W. E. Crusio, Fmr1 KO mice as a possible model of autistic features. Scientific WorldJournal, 2006. 6: p. 1164-76. Hays, S. A., K. M. Huber, and J. R. Gibson, Altered neocortical rhythmic activity states in Fmr1 KO mice are due to enhanced mGluR5 signaling and involve changes in excitatory circuitry. J Neurosci, 2011. 31(40): p. 14223-34. Willemsen, R. and R. F. Kooy, Mouse models of fragile X-related disorders. Dis Model Mech, 2023. 16(2).).
Unexpected drug-combination effects on rodent learning and memory: Novel object recognition test was used to assess treatment effects of different catecholaminergic mediations (including drug combinations) on cognitive behavior, i.e., learning and memory. […]

Fmr1 KO mice [2] = assay: Metabolic activities (glucose and lipid) of Fmr1 KO mice; assay type: in vivo, mouse; conditions: Fmr1 KO mice vs FVB mice; FIG. 4C
Text: The altered metabolic activities indicated sympathetic dysregulation (i.e., catecholaminergic disequilibrium). Dopaminergic activity modulates sympathetic activation.
as §1
Such alterations indicated an excessive sympathetic activation.

3-(phenylpropyl)-sydnonimine-N-phenylcarbamoyl [ACT01]
learning and memory ability (NOR index = novel object recognition index) (Fmr1 KO mice [1]): significantly (p<0.05) improved; also recorded: positively enhance | glucose and lipid metabolisms (metabolic activities) (Fmr1 KO mice [2]): normalized the glucose and lipid metabolisms; also recorded: normalized the metabolic activities
